Measured values from PMC6656724 (Communications Biology, 2019).
In brackets after ≈: the same amount, converted by molar mass.

system: not listed separately; test: Stability in mouse hepatic microsomes; settings: mouse hepatic microsomes

SMILES | Mean intrinsic clearance
Oc1ccc(-c2csc3nc(-c4ccccc4)nn23)c(O)c1 [compound 3, 4-(2-phenyl[1,2,4]triazolo[5,1-b][1,3]thiazol-6-yl)benzene-1,3-diol] | 49 µL/min/mg microsome protein

same assay, conditions: mouse, pooled liver microsomes, Half-life Mean, mouse hepatic microsomes, 1 µM

SMILES | half-life at 1 µM [min]
Oc1ccc(-c2csc3nc(-c4ccccc4)nn23)c(O)c1 [compound 3, 4-(2-phenyl[1,2,4]triazolo[5,1-b][1,3]thiazol-6-yl)benzene-1,3-diol] | 59

same assay, conditions: mouse, pooled liver microsomes, Half-life n=1, mouse hepatic microsomes, 1 µM

SMILES | half-life at 1 µM [min]
Oc1ccc(-c2csc3nc(-c4ccccc4)nn23)c(O)c1 [compound 3, 4-(2-phenyl[1,2,4]triazolo[5,1-b][1,3]thiazol-6-yl)benzene-1,3-diol] | 48

same assay, conditions: mouse, pooled liver microsomes, Half-life n=2, mouse hepatic microsomes, 1 µM

SMILES | half-life at 1 µM [min]
Oc1ccc(-c2csc3nc(-c4ccccc4)nn23)c(O)c1 [compound 3, 4-(2-phenyl[1,2,4]triazolo[5,1-b][1,3]thiazol-6-yl)benzene-1,3-diol] | 69

system: MDR1 (P-glycoprotein); test: in vitro; type: in vitro ADME, canine; settings: dog, MDCK-MDR1, pH 7.4, MDR1 MDCK; read-out: Papp A>B Mean
Method: (§1) internal standard at each timepoint. […]
(§2) including an analytical internal standard.
(§3) Apparent permeability (Papp) values were determined from the relationship: […]
(§4) Where V is the volume of each Transwell compartment (apical 125 µL, basolateral 600 µL), and concentrations are the relative MS responses for compound (normalized to internal standard) in the donor chamber before incubation and acceptor chamber at the end of the incubation. Area = area of cells exposed for drug transfer (0.33 cm 2).
(§5) Efflux ratios (Papp B>A / Papp A>B) were calculated for each compound from the […]
(§6) MDR1-MDCK cell line has been engineered to overexpress the efflux transporter, MDR1 (P-glycoprotein), and a finding of good permeability B>A, but poor […]
(§7) order to confirm the involvement of MDR1 in any efflux seen, an “ef fective efflux ratio” (EER) was calculated by comparing compound efflux ratios (ER) in the two cell types, i.e. EER = ER (MDR1-MDCK)/ ER (wild-type MDCK). This ratio illustrates the effect of the over-expressed MDR1 normalised for the background movement of compound through the wild-type cells.
(§8) Lucifer Yellow (LY) was added to the apical buffer in all wells to assess viability of the cell layer. As LY cannot freely permeate lipophilic barriers, a high degree of LY […]
(§9) validity of other wells on the plate.
(§10) Compound recovery from the wells was determined from MS responses (normalized to internal standard) in donor and acceptor chambers at the end of incubation compared to response in the donor chamber pre-incubation.

SMILES | Papp A→B at 1 h, 10 µM [×10⁻⁶ cm/s]
Oc1ccc(-c2csc3nc(-c4ccccc4)nn23)c(O)c1 [compound 3, 4-(2-phenyl[1,2,4]triazolo[5,1-b][1,3]thiazol-6-yl)benzene-1,3-diol] | 3.25

same assay, conditions: dog, MDCK-MDR1, pH 7.4, MDR1 MDCK; read-out: Papp B>A Mean

SMILES | Papp B→A at 1 h, 10 µM [×10⁻⁶ cm/s]
Oc1ccc(-c2csc3nc(-c4ccccc4)nn23)c(O)c1 [compound 3, 4-(2-phenyl[1,2,4]triazolo[5,1-b][1,3]thiazol-6-yl)benzene-1,3-diol] | 4.95

same assay, conditions: dog, MDCK-MDR1, pH 7.4, MDR1 MDCK; read-out: Recovery A>B Mean

SMILES | recovery at 1 h, 10 µM [%]
Oc1ccc(-c2csc3nc(-c4ccccc4)nn23)c(O)c1 [compound 3, 4-(2-phenyl[1,2,4]triazolo[5,1-b][1,3]thiazol-6-yl)benzene-1,3-diol] | 18

same assay, conditions: dog, MDCK-MDR1, pH 7.4, MDR1 MDCK; read-out: Recovery A>B n=1

SMILES | recovery at 1 h, 10 µM [%]
Oc1ccc(-c2csc3nc(-c4ccccc4)nn23)c(O)c1 [compound 3, 4-(2-phenyl[1,2,4]triazolo[5,1-b][1,3]thiazol-6-yl)benzene-1,3-diol] | 15

same assay, conditions: dog, MDCK-MDR1, pH 7.4, MDR1 MDCK; read-out: Recovery A>B n=2

SMILES | recovery at 1 h, 10 µM [%]
Oc1ccc(-c2csc3nc(-c4ccccc4)nn23)c(O)c1 [compound 3, 4-(2-phenyl[1,2,4]triazolo[5,1-b][1,3]thiazol-6-yl)benzene-1,3-diol] | 21

same assay, conditions: dog, MDCK-MDR1, pH 7.4, MDR1 MDCK; read-out: Recovery B>A Mean

SMILES | recovery at 1 h, 10 µM [%]
Oc1ccc(-c2csc3nc(-c4ccccc4)nn23)c(O)c1 [compound 3, 4-(2-phenyl[1,2,4]triazolo[5,1-b][1,3]thiazol-6-yl)benzene-1,3-diol] | 49.5

same assay, conditions: dog, MDCK-MDR1, pH 7.4, MDR1 MDCK; read-out: Recovery B>A n=1

SMILES | recovery at 1 h, 10 µM [%]
Oc1ccc(-c2csc3nc(-c4ccccc4)nn23)c(O)c1 [compound 3, 4-(2-phenyl[1,2,4]triazolo[5,1-b][1,3]thiazol-6-yl)benzene-1,3-diol] | 51

same assay, conditions: dog, MDCK-MDR1, pH 7.4, MDR1 MDCK; read-out: Recovery B>A n=2

SMILES | recovery at 1 h, 10 µM [%]
Oc1ccc(-c2csc3nc(-c4ccccc4)nn23)c(O)c1 [compound 3, 4-(2-phenyl[1,2,4]triazolo[5,1-b][1,3]thiazol-6-yl)benzene-1,3-diol] | 48

same assay, conditions: dog, MDCK-MDR1, pH 7.4, Papp A>B n=1, MDR1 MDCK

SMILES | Papp A→B at 1 h, 10 µM [×10⁻⁶ cm/s]
Oc1ccc(-c2csc3nc(-c4ccccc4)nn23)c(O)c1 [compound 3, 4-(2-phenyl[1,2,4]triazolo[5,1-b][1,3]thiazol-6-yl)benzene-1,3-diol] | 2.9

same assay, conditions: dog, MDCK-MDR1, pH 7.4, Papp A>B n=2, MDR1 MDCK

SMILES | Papp A→B at 1 h, 10 µM [×10⁻⁶ cm/s]
Oc1ccc(-c2csc3nc(-c4ccccc4)nn23)c(O)c1 [compound 3, 4-(2-phenyl[1,2,4]triazolo[5,1-b][1,3]thiazol-6-yl)benzene-1,3-diol] | 3.6

same assay, conditions: dog, MDCK-MDR1, pH 7.4, Papp B>A n=1, MDR1 MDCK

SMILES | Papp B→A at 1 h, 10 µM [×10⁻⁶ cm/s]
Oc1ccc(-c2csc3nc(-c4ccccc4)nn23)c(O)c1 [compound 3, 4-(2-phenyl[1,2,4]triazolo[5,1-b][1,3]thiazol-6-yl)benzene-1,3-diol] | 4.9

same assay, conditions: dog, MDCK-MDR1, pH 7.4, Papp B>A n=2, MDR1 MDCK

SMILES | Papp B→A at 1 h, 10 µM [×10⁻⁶ cm/s]
Oc1ccc(-c2csc3nc(-c4ccccc4)nn23)c(O)c1 [compound 3, 4-(2-phenyl[1,2,4]triazolo[5,1-b][1,3]thiazol-6-yl)benzene-1,3-diol] | 5

same assay, conditions: dog, pH 7.4; MDR1 MDCK, Papp B>A / Papp A>B

SMILES | efflux ratio at 1 h, 10 µM
Oc1ccc(-c2csc3nc(-c4ccccc4)nn23)c(O)c1 [compound 3, 4-(2-phenyl[1,2,4]triazolo[5,1-b][1,3]thiazol-6-yl)benzene-1,3-diol] | 1.5

system: not listed separately; test: in vitro; type: in vitro ADME, canine; settings: dog, MDCK, pH 7.4, Papp A>B n=1, wild type MDCK
Method: as §1, §2, §3, §4, §5, §6, §7, §8, §9, §10

SMILES | Papp A→B at 1 h, 10 µM [×10⁻⁶ cm/s]
Oc1ccc(-c2csc3nc(-c4ccccc4)nn23)c(O)c1 [compound 3, 4-(2-phenyl[1,2,4]triazolo[5,1-b][1,3]thiazol-6-yl)benzene-1,3-diol] | 2.7

same assay, conditions: dog, MDCK, pH 7.4, Papp A>B n=2, wild type MDCK

SMILES | Papp A→B at 1 h, 10 µM [×10⁻⁶ cm/s]
Oc1ccc(-c2csc3nc(-c4ccccc4)nn23)c(O)c1 [compound 3, 4-(2-phenyl[1,2,4]triazolo[5,1-b][1,3]thiazol-6-yl)benzene-1,3-diol] | 3.9

same assay, conditions: dog, MDCK, pH 7.4, Papp B>A n=1, wild type MDCK

SMILES | Papp B→A at 1 h, 10 µM [×10⁻⁶ cm/s]
Oc1ccc(-c2csc3nc(-c4ccccc4)nn23)c(O)c1 [compound 3, 4-(2-phenyl[1,2,4]triazolo[5,1-b][1,3]thiazol-6-yl)benzene-1,3-diol] | 2.7

same assay, conditions: dog, MDCK, pH 7.4, Papp B>A n=2, wild type MDCK

SMILES | Papp B→A at 1 h, 10 µM [×10⁻⁶ cm/s]
Oc1ccc(-c2csc3nc(-c4ccccc4)nn23)c(O)c1 [compound 3, 4-(2-phenyl[1,2,4]triazolo[5,1-b][1,3]thiazol-6-yl)benzene-1,3-diol] | 3.2

same assay, conditions: dog, MDCK, pH 7.4, wild type MDCK; read-out: Papp A>B Mean

SMILES | Papp A→B at 1 h, 10 µM [×10⁻⁶ cm/s]
Oc1ccc(-c2csc3nc(-c4ccccc4)nn23)c(O)c1 [compound 3, 4-(2-phenyl[1,2,4]triazolo[5,1-b][1,3]thiazol-6-yl)benzene-1,3-diol] | 3.3

same assay, conditions: dog, MDCK, pH 7.4, wild type MDCK; read-out: Papp B>A Mean

SMILES | Papp B→A at 1 h, 10 µM [×10⁻⁶ cm/s]
Oc1ccc(-c2csc3nc(-c4ccccc4)nn23)c(O)c1 [compound 3, 4-(2-phenyl[1,2,4]triazolo[5,1-b][1,3]thiazol-6-yl)benzene-1,3-diol] | 2.95

same assay, conditions: dog, MDCK, pH 7.4, wild type MDCK; read-out: Recovery A>B Mean

SMILES | recovery at 1 h, 10 µM [%]
Oc1ccc(-c2csc3nc(-c4ccccc4)nn23)c(O)c1 [compound 3, 4-(2-phenyl[1,2,4]triazolo[5,1-b][1,3]thiazol-6-yl)benzene-1,3-diol] | 15

same assay, conditions: dog, MDCK, pH 7.4, wild type MDCK; read-out: Recovery A>B n=1

SMILES | recovery at 1 h, 10 µM [%]
Oc1ccc(-c2csc3nc(-c4ccccc4)nn23)c(O)c1 [compound 3, 4-(2-phenyl[1,2,4]triazolo[5,1-b][1,3]thiazol-6-yl)benzene-1,3-diol] | 15

same assay, conditions: dog, MDCK, pH 7.4, wild type MDCK; read-out: Recovery A>B n=2

SMILES | recovery at 1 h, 10 µM [%]
Oc1ccc(-c2csc3nc(-c4ccccc4)nn23)c(O)c1 [compound 3, 4-(2-phenyl[1,2,4]triazolo[5,1-b][1,3]thiazol-6-yl)benzene-1,3-diol] | 15

same assay, conditions: dog, MDCK, pH 7.4, wild type MDCK; read-out: Recovery B>A Mean

SMILES | recovery at 1 h, 10 µM [%]
Oc1ccc(-c2csc3nc(-c4ccccc4)nn23)c(O)c1 [compound 3, 4-(2-phenyl[1,2,4]triazolo[5,1-b][1,3]thiazol-6-yl)benzene-1,3-diol] | 49

same assay, conditions: dog, MDCK, pH 7.4, wild type MDCK; read-out: Recovery B>A n=1

SMILES | recovery at 1 h, 10 µM [%]
Oc1ccc(-c2csc3nc(-c4ccccc4)nn23)c(O)c1 [compound 3, 4-(2-phenyl[1,2,4]triazolo[5,1-b][1,3]thiazol-6-yl)benzene-1,3-diol] | 50

same assay, conditions: dog, MDCK, pH 7.4, wild type MDCK; read-out: Recovery B>A n=2

SMILES | recovery at 1 h, 10 µM [%]
Oc1ccc(-c2csc3nc(-c4ccccc4)nn23)c(O)c1 [compound 3, 4-(2-phenyl[1,2,4]triazolo[5,1-b][1,3]thiazol-6-yl)benzene-1,3-diol] | 48

same assay, conditions: dog, pH 7.4; wild type MDCK, Papp B>A / Papp A>B

SMILES | efflux ratio at 1 h, 10 µM
Oc1ccc(-c2csc3nc(-c4ccccc4)nn23)c(O)c1 [compound 3, 4-(2-phenyl[1,2,4]triazolo[5,1-b][1,3]thiazol-6-yl)benzene-1,3-diol] | 0.89

system: not listed separately; test: Kinetic solubility in PBS, pH 7.4 (2% DMSO); type: physicochemical; settings: PBS with 2% DMSO, pH 7.4, aqueous buffer, kinetic from dmso stock, PBS, pH 7.4 (2% DMSO); read-out: Solubility Mean

SMILES | solubility at 2 h [µM]
Oc1ccc(-c2csc3nc(-c4ccccc4)nn23)c(O)c1 [compound 3, 4-(2-phenyl[1,2,4]triazolo[5,1-b][1,3]thiazol-6-yl)benzene-1,3-diol] | 67 (≈ 20.7 µg/mL)

same assay, conditions: PBS with 2% DMSO, pH 7.4, aqueous buffer, kinetic from dmso stock, PBS, pH 7.4 (2% DMSO); read-out: Solubility n=1

SMILES | solubility at 2 h [µM]
Oc1ccc(-c2csc3nc(-c4ccccc4)nn23)c(O)c1 [compound 3, 4-(2-phenyl[1,2,4]triazolo[5,1-b][1,3]thiazol-6-yl)benzene-1,3-diol] | 68 (≈ 21 µg/mL)

same assay, conditions: PBS with 2% DMSO, pH 7.4, aqueous buffer, kinetic from dmso stock, PBS, pH 7.4 (2% DMSO); read-out: Solubility n=2

SMILES | solubility at 2 h [µM]
Oc1ccc(-c2csc3nc(-c4ccccc4)nn23)c(O)c1 [compound 3, 4-(2-phenyl[1,2,4]triazolo[5,1-b][1,3]thiazol-6-yl)benzene-1,3-diol] | 65 (≈ 20.1 µg/mL)
